Results on 1 compound are retold here after patent US5670520A, “Method for inhibiting virus replication in mammalian cells using carbostyil derivatives” (Otsuka Pharmaceutical Co., Ltd., priority 1996, dated 1997).

Where two headings read alike, the source gives them in different places.

The subject of one data set is thymidine kinase. As to the kind of experiment: Thymidine kinase assay, vesnarinone added in vitro. It counts as biochemical. As to conditions: vesnarinone up to 100 μg/ml. The protocol:
5.0 μl of the kinase extract was incubated at 37° C. with 35 µl of kinase reaction buffer comprising 150 mM phosphate (pH 7.5), 20 mM ATP, 20 mM MgCl2, 40 mM KCl, 1.0 mM DTT, 10 mM NaF and 20 μM [^3 H]thymidine (6.7 Ci/mmole, ICN) for 5 or 15 min. The reaction was terminated by placing on ice, and an addition of 4.0 μl of 0.5M EDTA (pH 8.0). For measurement of dTTP-resistant thymidine kinase activity, a kinase reaction buffer additionally containing 100 μM dTTP (Pharmacia) was used.
The amount of phosphorylated [^3 H]thymidine derivatives formed during the reaction was determined by applying the reaction mixtures onto Whatman DE-81 paper filters, which were then washed four times in 1.0 mM ammoniumformate (pH 8.0), and once in ethanol before drying and liquid scintillation counting.

A short description of data set [1]: MTT cell viability of MRC5 cells. It is filed as cell-based. As to conditions: human, mrc5 cells, read-out: MTT Cell Viability (% of control). The protocol: More specifically, 5.0 μg/ml of MTT in Eagles MEM supplemented with 2.0% (v/v) fetal bovine serum was added to each well, and incubated at 37° C. for 6 hr. The cells were then solubilized by adding 30% (w/v) SDS in 0.02N HCl. The cultures were incubated overnight at 37° C. Then, the optical density was measured at 570 nm on a spectrophotometer.

As to `COc1ccc(C(=O)N2CCN(c3ccc4c(c3)CCC(=O)N4)CC2)cc1OC` [vesnarinone, 3,4-dihydro-6-[4-(3,4-dimethoxybenzoyl)-1-piperazinyl]-2(1H)-quinoline], the “thymidine kinase activity, drug added to in vitro assay” value with thymidine kinase is recorded as “did not display any inhibition of the thymidine kinase activity”. For the same compound, the viability was determined as 100% in data set [1] (vesnarinone 3.88 μg/ml alone), 98% in data set [1] (vesnarinone 7.75 μg/ml alone), 98% in data set [1] (vesnarinone 15.5 μg/ml alone) and 90% in data set [1] (vesnarinone 31 μg/ml alone).

As usually defined, the viability is the share of living cells, or the viability signal relative to a control.
